Reference: patent US6699880B1 (priority 1999, dated 2004)

Biological target: T1, human m4 receptor (Homo sapiens, UniProt P08173)
T1 construct: expressed in transfected cells
T1 sequence (P08173 1-479): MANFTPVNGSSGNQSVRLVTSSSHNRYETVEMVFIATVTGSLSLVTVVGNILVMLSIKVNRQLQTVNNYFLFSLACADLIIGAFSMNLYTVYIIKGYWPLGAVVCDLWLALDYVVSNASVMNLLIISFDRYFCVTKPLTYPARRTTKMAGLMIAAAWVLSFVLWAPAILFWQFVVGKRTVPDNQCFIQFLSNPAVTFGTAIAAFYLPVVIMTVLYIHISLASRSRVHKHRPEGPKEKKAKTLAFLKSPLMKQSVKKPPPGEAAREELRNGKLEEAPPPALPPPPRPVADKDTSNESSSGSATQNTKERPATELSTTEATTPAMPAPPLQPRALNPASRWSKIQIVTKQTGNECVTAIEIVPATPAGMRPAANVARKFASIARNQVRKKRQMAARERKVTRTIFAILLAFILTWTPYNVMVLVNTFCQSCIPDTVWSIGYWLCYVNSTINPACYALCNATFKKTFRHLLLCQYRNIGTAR
Assay type: cell-based
Settings: 0.01 µM

SMILES	Agonist Activity (%) (M4 Receptors-Stimulating Activity)
C#CCn1c(=O)n(C2CCN(C3CCN(C(=O)OC)CC3)CC2)c2ccccc21 [Example 1, 1-[1-(1-methoxycarbonylpiperidin-4-yl)-piperidin-4-yl]-3-(2-propinyl)-1,3-dihydro-2H-benzimidazol-2-one]	91%
C=CCn1c(=O)n(C2CCN(C3CCN(C(=O)OC)CC3)CC2)c2ccccc21 [Example 2, 1-[1-(1-methoxycarbonylpiperidin-4-yl)-piperidin-4-yl]-3-(2-propenyl)-1,3-dihydro-2H-benzimidazol-2-one]	96%
CCCCn1c(=O)n(C2CCN(C3CCN(C(=O)OC)CC3)CC2)c2ccccc21 [Example 3, 1-[1-(1-methoxycarbonylpiperidin-4-yl)-piperidin-4-yl]-3-n-butyl-1,3-dihydro-2H-benzimidazol-2-one]	101%
COC(=O)N1CCC(N2CCC(n3c(=O)n(C)c4ccccc43)CC2)CC1 [Example 4, 1-[1-(1-methoxycarbonylpiperidin-4-yl)-piperidin-4-yl]-3-methyl-1,3-dihydro-2H-benzimidazol-2-one]	96%
COC(=O)N1CCC(N2CCC(n3c(=O)n(CC(F)(F)F)c4ccccc43)CC2)CC1 [Example 5, 1-[1-(1-methoxycarbonylpiperidin-4-yl)-piperidin-4-yl]-3-(2,2,2-trifluoroethyl)-1,3-dihydro-2H-benzimidazol-2-one]	90%
COC(=O)Cn1c(=O)n(C2CCN(C3CCN(C(=O)OC)CC3)CC2)c2ccccc21 [Example 6, 1-[1-(1-methoxycarbonylpiperidin-4-yl)-piperidin-4-yl]-3-(methoxycarbonylmethyl)-1,3-dihydro-2H-benzimidazol-2-one]	92%
COC(=O)N1CCC(N2CCC(n3c(=O)n(CC(C)=O)c4ccccc43)CC2)CC1 [Example 7, 1-[1-(1-methoxycarbonylpiperidin-4-yl)-piperidin-4-yl]-3-(2-oxopropyl)-1,3-dihydro-2H-benzimidazol-2-one]	97%
COC(=O)N1CCC(N2CCC(n3c(=O)n(CCN)c4ccccc43)CC2)CC1 [Example 8, 1-[1-(1-methoxycarbonylpiperidin-4-yl)-piperidin-4-yl]-3-(2-aminoethyl)-1,3-dihydro-2H-benzimidazol-2-one]	95%
COC(=O)N1CCC(N2CCC(n3c(=O)n(C(C)=O)c4ccccc43)CC2)CC1 [Example 12, 1-[1-(1-methoxycarbonylpiperidin-4-yl)-piperidin-4-yl]-3-acetyl-1,3-dihydro-2H-benzimidazol-2-one]	95%
CCOC(=O)N1CCC(N2CCC(n3c(=O)n(S(C)(=O)=O)c4ccccc43)CC2)CC1 [Example 20, 1-[1-(1-ethoxycarbonylpiperidin-4-yl)-piperidin-4-yl]-3-(methylsulfonyl)-1,3-dihydro-2H-benzimidazol-2-one]	94%
